From US8012983B2, “Substituted triazolopyrazines useful for the treatment of degenerative and inflammatory diseases” (Galapagos NV, priority 2008, dated 2011)
pIC50: −log10 of the molar value.

These compounds were tested on MMP1 expression by activated synovial fibroblasts (RASFs) (assay: 'MMP assay': complex trigger-induced MMP1 expression by synovial fibroblasts (MMP1 ELISA)). Settings: Homo sapiens, Fibroblast; RASFs, complex trigger, 48 hrs; read-out: MMP1 IC50.
Type: cell-based
Experimental: A 384-well format ELISA for measurement of MMP1 is developed. Various primary antibodies are tested, as well as various ELISA protocols. The following protocol is developed and validated to measure MMP1 levels in SF supernatant in 384 well plates: white Lumitrac 600 384 well plates (Greiner) are coated with 2 μg/mL anti-MMP1 antibody MAB1346 (Chemicon). The antibody is diluted in buffer 40 (1.21 g Tris base (Sigma), 0.58 g NaCl (Calbiochem) and 5 ml 10% NaN3 (Sigma) in 1 L milliQ water and adjusted to pH 8.5). After overnight incubation at 4° C., plates are washed with PBS (80 g NaCl, 2 g KCl (Sigma), 11.5 g Na2HPO4.7H2O and 2 g KH2PO4 in 10 L milliQ; pH 7.4) and blocked with 100 μL/well Casein buffer (2% Casein (VWR International) in PBS). Next day, casein buffer is removed from ELISA plates and replaced by 50 μL/well EC buffer (4 g casein, 2.13 g Na2HPO4 (Sigma), 2 g bovine albumin (Sigma), 0.69 g NaH2PO4.H2O (Sigma), 0.5 g CHAPS (Roche), 23.3 g NaCl, 4 ml 0,5 M EDTA pH 8 (Invitrogen), 5 ml 10% NaN3 in 1 L milliQ and adjusted to pH 7.0). 0.25 mM DTT (Sigma) is added to the thawed samples plates. After removal of the EC buffer, 20 μL of sample is transferred to the ELISA plates. After overnight incubation at 4° C. plates are washed twice with PBS and once with PBST (PBS with 0.05% Tween-20 (Sigma)) and incubated with 35 μL/well biotinylated anti-MMP1 antibody solution (R&D). This secondary antibody is diluted in buffer C (0.82 g NaH2PO4.H2O, 4.82 g Na2HPO4, 46.6 g NaCl, 20 g bovine albumin and 4 mL 0,5M EDTA pH 8 in 2 L milliQ and adjusted to pH 7.0) at a concentration of 5 μg/mL. After 2 h of incubation at RT, plates are washed as described above and incubated with 50 μL/well streptavidin-HRP conjugate (Biosource). Streptavidin-HRP conjugate is diluted in buffer C at a concentration of 0.25 μg/mL. After 45 min, plates are washed as described above and incubated for 5 min with 50 μL/well BM Chem ELISA Substrate (Roche). Readout is performed on the Luminoscan Ascent Luminometer (Labsystems) with an integration time of 200 msec or with an Envision reader (Perkin Elmer).
The increase of MMP1 expression by SFs upon treatment with cytokines relevant in the field of RA (TNF-α, IL1β and OSM) or a combination thereof is shown in FIG. 2 as white bars. For this experiment, SFs are seeded in 96 well plates, 3,000 cells/well. 24 h later, the medium is changed to M199 medium supplemented with 1% FBS. One day after the medium change, cytokines or combinations thereof are added to the cultures, each cytokine being added to a final concentration of 25 ng/mL. 72 h after cytokine addition, the supernatant is collected and processed in the MMP1 ELISA as described in the protocol given above. In parallel with this experiment, SFs are triggered, using the same protocol, with the supernatant of THP1 cells (2-fold diluted in M199+1% FBS) treated with the same cytokines or combinations of cytokines for 48 h in M199 medium+1% FBS. The induction of the MMP1 expression by SFs triggered with the supernatants of TNF-α-treated THP1 cells is stronger (>4.5 fold induction) as compared to the SFs triggered with recombinant TNF-α alone (3-fold induction) and almost equals the 5-fold induction obtained by a mixture of 3 purified cytokines (TNF-α, IL1βb, OSM). […] As the role of TNF-α in the RA pathogenesis is validated (TNF-α-blockers such as Infliximab and Etanercept show some efficacy in the treatment of RA patients) and the THP-1 cells are representative for monocytes/macrophages present in the joint of RA patients, the TNF-α-based trigger mixture prepared by contacting THP-1 cells with TNF-α will contain factors present in the joints of RA patients and subsequently is relevant to RA. This TNF-α-based complex trigger, further referred to as the ‘complex trigger’, will further be used as basis for the ‘MMP assay’. […]

**Q.** With CC(C)(C)N1C[C@@H]2C[C@H]1CN2c1ccc(Nc2ncc(-c3ccc4c(c3)CNC4=O)n3ncnc23)cc1 [Compound 16, 5-{8-(4-((1S,4S)-5-tert-butyl-2,5-diazabicyclo[2.2.1]heptan-2-yl)phenylamino)-[1,2,4]triazolo-[1,5-a]pyrazin-5-yl}-2,3-dihydro-isoindol-1-one] as the compound, how does the pIC50 read?
**A.** < 6.00

**Q.** With CC(C)N1C[C@@H]2C[C@H]1CN2c1ccc(Nc2ncc(-c3cc[nH]c(=O)c3)n3ncnc23)cc1 [Compound 20, 4-(8-(4-((1S,4S)-5-isopropyl-2,5-diazabicyclo[2.2.1]heptan-2-yl)phenylamino)-[1,2,4]triazolo[1,5-a]pyrazin-5-yl)pyridin-2(1H)-one] as the compound, how does the pIC50 read?
**A.** < 6.00

**Q.** How did the pIC50 turn out when CC(C)N1C[C@@H]2C[C@H]1CN2c1cccc(Nc2ncc(-c3coc(C(N)=O)c3)n3ncnc23)c1 [Compound 24, 4-(8-(3-((1S,4S)-5-isopropyl-2,5-diazabicyclo[2.2.1]heptan-2-yl)phenylamino)-[1,2,4]triazolo[1,5-a]pyrazin-5-yl)furan-2-carboxamide] was run?
**A.** < 6.00

**Q.** CC(C)N1C[C@@H]2C[C@H]1CN2c1ccc(Nc2ncc(-c3noc(C(N)=O)n3)n3ncnc23)cc1 [Compound 23, 3-(8-(4-((1S,4S)-5-isopropyl-2,5-diazabicyclo[2.2.1]heptan-2-yl)phenylamino)-[1,2,4]triazolo[1,5-a]pyrazin-5-yl)-1,2,4-oxadiazole-5-carboxamide] was tested. Which pIC50 did it give?
**A.** < 6.00

**Q.** With CC(C)N1C[C@@H]2C[C@H]1CN2c1ccc(Nc2ncc(-c3coc(C(N)=O)c3)n3ccnc23)cc1 [Compound 4, 4-{8-[4-((1S,4S)-5-Isopropyl-2,5-diaza-bicyclo[2.2.1]hept-2-yl)-phenylamino]-imidazo[1,2-a]pyrazin-5-yl}-furan-2-carboxamide] as the compound, how does the pIC50 read?
**A.** < 6.00

**Q.** With CC(C)(C)N1C[C@@H]2C[C@H]1CN2c1ccc(Nc2ncc(-c3cc(C(N)=O)n[nH]3)n3ncnc23)cc1 [Compound 17, 5-{8-(4-((1S,4S)-5-tert-butyl-2,5-diazabicyclo[2.2.1]heptan-2-yl)phenyl-amino)-[1,2,4]triazolo[1,5-a]pyrazin-5-yl}-1H-pyrazole-3-carboxylic acid amide] as the compound, how does the pIC50 read?
**A.** < 6.00

**Q.** How did the pIC50 turn out when CC(C)N1C[C@@H]2C[C@H]1CN2c1ccc(Nc2ncc(-c3ccc4c(c3)CNC4=O)n3ncnc23)cn1 [Compound 18, 5-{8-(6-((1S,4S)-5-isopropyl-2,5-diazabicyclo[2.2.1]heptan-2-yl)pyridin-3-ylamino)-[1,2,4]triazolo[1,5-a]pyrazin-5-yl}-2,3-dihydro-isoindol-1-one] was run?
**A.** < 6.00

**Q.** CC(C)N1C[C@@H]2C[C@H]1CN2c1ccc(Nc2ncc(-c3cc(C(N)=O)n[nH]3)n3ncnc23)cc1 [Compound 5, 5-{8-(4-((1S,4S)-5-isopropyl-2,5-diazabicyclo[2.2.1]heptan-2-yl)phenyl-amino)-[1,2,4]triazolo[1,5-a]pyrazin-5-yl}-1H-pyrazole-3-carboxamide] was tested. Which pIC50 did it give?
**A.** 6.00 to 9.00

**Q.** With CC(C)N1C[C@@H]2C[C@H]1CN2c1ccc(Nc2ncc(-c3cc[nH]c(=O)c3)n3ccnc23)cc1 [Compound 8, 4-{8-(4-((1S,4S)-5-isopropyl-2,5-diazabicyclo[2.2.1]heptan-2-yl)phenyl-amino)imidazo[1,2-a]pyrazin-5-yl}-1H-pyridin-2-one] as the compound, how does the pIC50 read?
**A.** 6.00 to 9.00

**Q.** How did the pIC50 turn out when CC(C)N1CC2CCC1CN2c1ccc(Nc2ncc(-c3coc(C(N)=O)c3)n3ncnc23)cc1 (centres unmarked) [Compound 9, 4-{8-(4-(5-isopropyl-2,5-diazabicyclo[2.2.2]octan-2-yl)phenylamino)[1,2,4]-triazolo[1,5-a]pyrazin-5-yl}-furan-2-carboxamide] was run?
**A.** 6.00 to 9.00

**Q.** CC(C)N1C[C@@H]2C[C@H]1CN2c1cccc(Nc2ncc(-c3coc(C(N)=O)c3)n3ccnc23)c1 [Compound 25, 4-(8-(3-((1S,4S)-5-isopropyl-2,5-diazabicyclo[2.2.1]heptan-2-yl)phenylamino)imidazo[1,2-a]pyrazin-5-yl)furan-2-carboxamide] was tested. Which pIC50 did it give?
**A.** < 6.00

**Q.** CC(C)N1C[C@@H]2C[C@H]1CN2c1cccc(Nc2ncc(-c3ccc4c(c3)CNC4=O)n3ncnc23)c1 [Compound 26, 5-(8-(3-((1S,4S)-5-isopropyl-2,5-diazabicyclo[2.2.1]heptan-2-yl)phenylamino)-[1,2,4]triazolo[1,5-a]pyrazin-5-yl)isoindolin-1-one] was tested. Which pIC50 did it give?
**A.** < 6.00

**Q.** CC(C)N1C2CCC1CN(c1ccc(Nc3ncc(-c4coc(C(N)=O)c4)n4ncnc34)cc1)C2 [Compound 12, 4-{8-(4-(8-isopropyl-3,8-diazabicyclo[3.2.1]octan-3-yl)phenylamino)[1,2,4]-triazolo[1,5-a]pyrazin-5-yl}-furan-2-carboxamide] was tested. Which pIC50 did it give?
**A.** < 6.00

**Q.** With CC(C)(C)N1C[C@@H]2C[C@H]1CN2c1ccc(Nc2ncc(-c3coc(C(N)=O)c3)n3ncnc23)cc1 [Compound 3, 4-{8-[4-((1S,4S)-5-tert-Butyl-2,5-diaza-bicyclo[2.2.1]hept-2-yl)-phenylamino]-[1,2,4]triazolo[1,5-a]pyrazin-5-yl}-furan-2-carboxamide] as the compound, how does the pIC50 read?
**A.** < 6.00

**Q.** With CC(C)N1CC2CCC(C1)N2c1ccc(Nc2ncc(-c3coc(C(N)=O)c3)n3ccnc23)cc1 [Compound 11, 4-{8-(4-(3-isopropyl-3,8-diazabicyclo[3.2.1]octan-8-yl)phenylamino)-imidazo[1,2-a]pyrazin-5-yl}-furan-2-carboxamide] as the compound, how does the pIC50 read?
**A.** < 6.00

**Q.** How did the pIC50 turn out when CCOc1cc(-c2cnc(Nc3ccc(N4C[C@@H]5C[C@H]4CN5C(C)C)cc3)c3nccn23)ccn1 [Compound 22, 5-(2-ethoxypyridin-4-yl)-N-(4-((1S,4S)-5-isopropyl-2,5-diazabicyclo[2.2.1]heptan-2-yl)phenyl)imidazo[1,2-a]pyrazin-8-amine] was run?
**A.** < 6.00

**Q.** How did the pIC50 turn out when CC(C)(C)N1C[C@@H]2C[C@H]1CN2c1ccc(Nc2ncc(-c3coc(C(N)=O)c3)n3ccnc23)cc1 [Compound 6] was run?
**A.** < 6.00

**Q.** With CC(C)N1C[C@@H]2C[C@H]1CN2c1ccc(Nc2ncc(-c3cc(C(N)=O)n[nH]3)n3ncnc23)cn1 [Compound 15, 5-{8-(6-((1S,4S)-5-isopropyl-2,5-diazabicyclo[2.2.1]heptan-2-yl)pyridin-3-ylamino)-[1,2,4]triazolo[1,5-a]pyrazin-5-yl}-1H-pyrazole-3-carboxylic acid amide] as the compound, how does the pIC50 read?
**A.** < 6.00

**Q.** How did the pIC50 turn out when CCOC(=O)c1cc(-c2cnc(Nc3ccc(N4C[C@@H]5C[C@H]4CN5C(C)C)cc3)c3ncnn23)[nH]n1 [Compound 21, Ethyl 5-(8-(4-((1S,4S)-5-isopropyl-2,5-diazabicyclo[2.2.1]heptan-2-yl)phenylamino)-[1,2,4]triazolo[1,5-a]pyrazin-5-yl)-1H-pyrazole-3-carboxylate] was run?
**A.** < 6.00

**Q.** With CCOc1cc(-c2cnc(Nc3ccc(N4C[C@@H]5C[C@H]4CN5C(C)C)cc3)c3ncnn23)ccn1 [Compound 19, 5-(2-ethoxypyridin-4-yl)-N-(4-((1S,4S)-5-isopropyl-2,5-diazabicyclo[2.2.1]heptan-2-yl)phenyl)-[1,2,4]triazolo[1,5-a]pyrazin-8-amine] as the compound, how does the pIC50 read?
**A.** < 6.00
